Drawing on patent US10611731B2, “5-methyl-6-phenyl-4,5-dihydro-2H-pyridazin-3-one derivative” (OTSUKA PHARMACEUTICAL CO., LTD., priority 2016, dated 2020), this text covers IC50 for 36 compounds.

For the assay, the system named is human childhood brain tumor cell lines (PFSK-1). Description: Growth inhibitory activity against PFSK-1 cells (WST-8, Cell Counting Kit-8). The class given is cell-based. The following applies: Homo sapiens, 72 h, 3 days incubation with test compound, WST-8 OD 450/630 nm, read-out: IC50 (concentration inhibiting 50% of the cell growth). In outline:
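Cells seeded in RPMI 1640 with 10% FBS and preincubated 24 h at 37 °C, 5% CO2, then exposed to compound for 3 days. IC50 (nM) from growth relative to untreated control.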
(Tetrazolium dyes change colour on reduction, which living cells bring about.)

Each structure is given as a SMILES string.

For the compound `CC1CC(=O)NN=C1c1cc(F)c(OCCCO)c(Cl)c1F` (stereo not drawn) [Example 140, 6-[3-chloro-2,5-difluoro-4-(3-hydroxypropoxy)phenyl]-5-methyl-4,5-dihydro-2H-pyridazin-3-one], the IC50 is 2 nM.

In the case of `Cc1cc(C2=NNC(=O)CC2C)c(F)c(C)c1OCCCO` (stereo not drawn) [Example 141, 6-[2-Fluoro-4-(3-hydroxypropoxy)-3,5-dimethylphenyl]-5-methyl-4,5-dihydro-2H-pyridazin-3-one], the IC50 stood at 4.6 nM.

Take `Cc1cc(C2=NNC(=O)CC2C)cc(Cl)c1OCC(C)CO` (stereo not drawn) [Example 142, 6-[3-chloro-4-(3-hydroxy-2-methylpropoxy)-5-methylphenyl]-5-methyl-4,5-dihydro-2H-pyridazin-3-one]: the IC50 was found to be 1 nM.

Consider `Cc1cc(C2=NNC(=O)CC2C)cc(Cl)c1OCCC(C)O` (stereo not drawn) [Example 143, 6-[3-Chloro-4-(3-hydroxybutoxy)-5-methylphenyl]-5-methyl-4,5-dihydro-2H-pyridazin-3-one], for which the IC50 is 6.9 nM.

As to `Cc1cc(C2=NNC(=O)CC2C)cc(Cl)c1OCC1(CO)CC1` (stereo not drawn) [Example 144, 6-{3-Chloro-4-[1-(hydroxymethyl)cyclopropylmethoxy]-5-methylphenyl}-5-methyl-4,5-dihydro-2H-pyridazin-3-one], the IC50 turned out to be 4.2 nM.

Turning to `CC1CC(=O)NN=C1c1ccc(OCC2(CO)CC2)c(F)c1F` (stereo not drawn) [Example 145, 6-{2,3-Difluoro-4-[1-(hydroxymethyl)cyclopropylmethoxy]phenyl}-5-methyl-4,5-dihydro-2H-pyridazin-3-one], the IC50 was 7.1 nM.

For `CC1CC(=O)NN=C1c1ccc(OCC(C)(C)CCO)c(Cl)c1O` (stereo not drawn) [Example 146, 6-[3-chloro-2-hydroxy-4-(4-hydroxy-2,2-dimethylbutoxy)phenyl]-5-methyl-4,5-dihydro-2H-pyridazin-3-one], the IC50 turned out to be 6.8 nM.

For the compound `Cc1c(F)c(C2=NNC(=O)CC2C)cc(Cl)c1OCC(C)O` (stereo not drawn) [Example 147, 6-[5-Chloro-2-fluoro-4-(2-hydroxypropoxy)-3-methylphenyl]-5-methyl-4,5-dihydro-2H-pyridazin-3-one], the IC50 was 7.6 nM.

`Cc1cc(C2=NNC(=O)CC2C)c(F)c(Cl)c1OCC(C)O` (stereo not drawn) [Example 148, 6-[3-Chloro-2-fluoro-4-(2-hydroxypropoxy)-5-methylphenyl]-5-methyl-4,5-dihydro-2H-pyridazin-3-one]: the IC50 was below 1 nM.

For `CC(O)COc1c(F)cc(C2=NNC(=O)CC2C)c(F)c1Cl` (stereo not drawn) [Example 149, 6-[3-Chloro-2,5-difluoro-4-(2-hydroxypropoxy)phenyl]-5-methyl-4,5-dihydro-2H-pyridazin-3-one], the IC50 amounted to 3.6 nM.

Regarding `Cc1cc(C2=NNC(=O)CC2C)c(F)c(C)c1OC/C=C\CO` (stereo not drawn) [Example 150, 6-{2-Fluoro-4-[(Z)-4-hydroxy-2-butenyloxy]-3,5-dimethylphenyl}-5-methyl-4,5-dihydro-2H-pyridazin-3-one], the IC50 amounted to 3.7 nM.

Consider `Cc1cc(C2=NNC(=O)CC2C)c(F)c(Cl)c1OC/C=C\CO` (stereo not drawn) [Example 151, 6-{3-Chloro-2-fluoro-4-[(Z)-4-hydroxy-2-butenyloxy]-5-methylphenyl}-5-methyl-4,5-dihydro-2H-pyridazin-3-one], for which the IC50 was 1.3 nM.

Regarding `CC1CC(=O)NN=C1c1cc(F)c(OC/C=C\CO)c(Cl)c1F` (stereo not drawn) [Example 152, 6-{3-Chloro-2,5-difluoro-4-[(Z)-4-hydroxy-2-butenyloxy]phenyl}-5-methyl-4,5-dihydro-2H-pyridazin-3-one], the IC50 turned out to be 3.4 nM.

As for `Cc1c(OC/C=C\CO)ccc(C2=NNC(=O)CC2C)c1O` (stereo not drawn) [Example 153, 6-{2-Hydroxy-4-[(Z)-4-hydroxy-2-butenyloxy]-3-methylphenyl}-5-methyl-4,5-dihydro-2H-pyridazin-3-one], the IC50 turned out to be 5.3 nM.

Consider `Cc1c(F)c(C2=NNC(=O)CC2C)cc(Cl)c1OCC(F)(F)CO` (stereo not drawn) [Example 158, 6-[5-Chloro-4-(2,2-difluoro-3-hydroxypropoxy)-2-fluoro-3-methylphenyl]-5-methyl-4,5-dihydro-2H-pyridazin-3-one], for which the IC50 came out at 4.3 nM.

Turning to `Cc1cc(C2=NNC(=O)CC2C)c(F)c(Cl)c1OCC(F)(F)CO` (stereo not drawn) [Example 159, 6-[3-Chloro-4-(2,2-difluoro-3-hydroxypropoxy)-2-fluoro-5-methylphenyl]-5-methyl-4,5-dihydro-2H-pyridazin-3-one], the IC50 is below 1 nM.

Consider `Cc1cc(C2=NNC(=O)CC2C)c(F)c(C)c1OCC(F)(F)CO` (stereo not drawn) [Example 160, 6-[4-(2,2-Difluoro-3-hydroxypropoxy)-2-fluoro-3,5-dimethylphenyl]-5-methyl-4,5-dihydro-2H-pyridazin-3-one], for which the IC50 is 1.9 nM.

As to `CC1CC(=O)NN=C1c1cc(F)c(OCC(F)(F)CO)c(Cl)c1F` (stereo not drawn) [Example 161, 6-[3-Chloro-4-(2,2-difluoro-3-hydroxypropoxy)-2,5-difluorophenyl]-5-methyl-4,5-dihydro-2H-pyridazin-3-one], the IC50 amounted to 2.7 nM.

For `CC1CC(=O)NN=C1c1ccc(OCC(F)(F)CO)c(Cl)c1O` (stereo not drawn) [Example 162, 6-[3-Chloro-4-(2,2-difluoro-3-hydroxypropoxy)-2-hydroxyphenyl]-5-methyl-4,5-dihydro-2H-pyridazin-3-one], the IC50 was 6.4 nM.

On to `CCC(O)COc1ccc(C2=NNC(=O)CC2C)c(O)c1Cl` (stereo not drawn) [Example 163, 6-[3-Chloro-2-hydroxy-4-(2-hydroxybutoxy)phenyl]-5-methyl-4,5-dihydro-2H-pyridazin-3-one], for which the IC50 was 5.2 nM.

Consider `Cc1cc(C2=NNC(=O)CC2C)c(O)c(Cl)c1OCC(C)O` (stereo not drawn) [Example 164, 6-[3-Chloro-2-hydroxy-4-(2-hydroxypropoxy)-5-methylphenyl]-5-methyl-4,5-dihydro-2H-pyridazin-3-one], for which the IC50 amounted to 4.9 nM.

As to `CC1CC(=O)NN=C1c1cc(Cl)c(OCC2(O)CC2)c(Br)c1` (stereo not drawn) [Example 165, 6-{3-bromo-5-chloro-4-[(1-hydroxycyclopropyl)methoxy]phenyl}-5-methyl-4,5-dihydro-2H-pyridazin-3-one], the IC50 was determined as 2.6 nM.

As to `Cc1c(OCC2(O)CC2)ccc(C2=NNC(=O)CC2C)c1O` (stereo not drawn) [Example 166, 6-{2-Hydroxy-4-[(1-hydroxycyclopropyl)methoxy]-3-methylphenyl}-5-methyl-4,5-dihydro-2H-pyridazin-3-one], the IC50 amounted to 4.7 nM.

In the case of `Cc1cc(C2=NNC(=O)CC2C)c(F)c(Cl)c1OCC1(O)CC1` (stereo not drawn) [Example 167, 6-{3-Chloro-2-fluoro-4-[(1-hydroxycyclopropyl)methoxy]-5-methylphenyl}-5-methyl-4,5-dihydro-2H-pyridazin-3-one], the IC50 turned out to be 1.3 nM.

On to `CC1CC(=O)NN=C1c1ccc(OCC2(O)CC2)c(Br)c1F` (stereo not drawn) [Example 168, 6-{3-Bromo-2-fluoro-4-[(1-hydroxycyclopropyl)methoxy]phenyl}-5-methyl-4,5-dihydro-2H-pyridazin-3-one], for which the IC50 is 2.3 nM.

On to `CC1CC(=O)NN=C1c1cc(F)c(OCC2(O)CC2)c(Br)c1` (stereo not drawn) [Example 169, 6-{3-Bromo-5-fluoro-4-[(1-hydroxycyclopropyl)methoxy]phenyl}-5-methyl-4,5-dihydro-2H-pyridazin-3-one], for which the IC50 amounted to 4 nM.

`CC1CC(=O)NN=C1c1cc(Cl)c(OCC2(O)CC2)c(Cl)c1` (stereo not drawn) [Example 170, 6-{3,5-Dichloro-4-[(1-hydroxycyclopropyl)methoxy]phenyl}-5-methyl-4,5-dihydro-2H-pyridazin-3-one]: the IC50 was found to be 2.5 nM.

As to `Cc1cc(C2=NNC(=O)CC2C)c(F)c(C)c1OCC1(O)CC1` (stereo not drawn) [Example 171, 6-{2-Fluoro-4-[(1-hydroxycyclopropyl)methoxy]-3,5-dimethylphenyl}-5-methyl-4,5-dihydro-2H-pyridazin-3-one], the IC50 is 6.3 nM.

As to `CC1CC(=O)NN=C1c1cc(F)c(OCC2(O)CC2)c(Cl)c1F` (stereo not drawn) [Example 172, 6-{3-Chloro-2,5-difluoro-4-[(1-hydroxycyclopropyl)methoxy]phenyl}-5-methyl-4,5-dihydro-2H-pyridazin-3-one], the IC50 turned out to be 5.2 nM.

As for `CC1CC(=O)NN=C1c1ccc(OCC2(O)CC2)c(Cl)c1O` (stereo not drawn) [Example 174, 6-{3-Chloro-2-hydroxy-4-[(1-hydroxycyclopropyl)methoxy]phenyl}-5-methyl-4,5-dihydro-2H-pyridazin-3-one], the IC50 worked out at 4.2 nM.

For the compound `Cc1cc(C2=NNC(=O)CC2C)c(O)c(Cl)c1OCC1(O)CC1` (stereo not drawn) [Example 175, 6-{3-Chloro-2-hydroxy-4-[(1-hydroxycyclopropyl)methoxy]-5-methylphenyl}-5-methyl-4,5-dihydro-2H-pyridazin-3-one], the IC50 stood at 4.1 nM.

With `Cc1c(O)c(C2=NNC(=O)CC2C)cc(Cl)c1OCC1(O)CC1` (stereo not drawn) [Example 176, 6-{5-Chloro-2-hydroxy-4-[(1-hydroxycyclopropyl)methoxy]-3-methylphenyl}-5-methyl-4,5-dihydro-2H-pyridazin-3-one], the IC50 turned out to be 9.2 nM.

For `Cc1cc(C2=NNC(=O)CC2C)c(F)cc1OC(F)(F)CO` (stereo not drawn) [Example 177, 6-[4-(1,1-difluoro-2-hydroxyethoxy)-2-fluoro-5-methylphenyl]-5-methyl-4,5-dihydro-2H-pyridazin-3-one], the IC50 worked out at 4 nM.

Regarding `Cc1c(OCCCO)ccc(C2=NNC(=O)C[C@H]2C)c1O` [Example 178, (5R)-(−)-6-[2-hydroxy-4-(3-hydroxypropoxy)-3-methylphenyl]-5-methyl-4,5-dihydro-2H-pyridazin-3-one], the IC50 amounted to 4.6 nM.

With `Cc1c(OCC(C)(C)O)ccc(C2=NNC(=O)C[C@H]2C)c1O` [Example 179, (5R)-(−)-6-[2-hydroxy-4-(2-hydroxy-2-methylpropoxy)-3-methylphenyl]-5-methyl-4,5-dihydro-2H-pyridazin-3-one], the IC50 came out at 3.3 nM.

With `C[C@@H]1CC(=O)NN=C1c1ccc(OCCCCO)c(Cl)c1O` [Example 180, (5R)-(−)-6-[3-chloro-2-hydroxy-4-(4-hydroxybutoxy)phenyl]-5-methyl-4,5-dihydro-2H-pyridazin-3-one], the IC50 turned out to be 6.5 nM.
